# US9849130B2 (KamTek, Inc., priority 2014, dated 2017)
# Where two headings read alike, the source gives them in different places.
# How the values were obtained:
# Fusobacterium = experiment: MIC by microdilution in Brucella broth against Fusobacterium; type: cell-based, Fusobacterium spp.; conditions: Brucella broth, read-out: MIC
# Lactobacillus strains = experiment: MIC against Lactobacillus strains; type: cell-based, Lactobacillus spp.; conditions: broth microdilution, BHI with 0.02% Tween 80, pH 6.0, read-out: MIC
# CD strains = experiment: In vitro activity of CFM + additional antimicrobial agent against CD (MIC alone/combination, FIC, ΣFIC); type: cell-based, Clostridium difficile; conditions: for MIC: Clostridioides difficile, read-out: MIC alone
# [1] = Test 1, CD strain VPI 10463, CFM + VAN
# [2] = Test 9, CD strain NR32885, CFM + VAN
# [3] = Test 11, CD strain NR32885, CFM + VAN
# [4] = Test 12, CD strain NR32885, CFM + MET
# [5] = Test 2, CD strain VPI 10463, CFM + VAN
# [6] = Test 3, CD strain VPI 10463, CFM + MET
# [7] = Test 4, CD strain VPI 10463, CFM + MET
# [8] = Test 5, CD strain NR32889, CFM + VAN
# [9] = Test 6, CD strain NR32890, CFM + VAN
# [10] = Test 7, CD strain NR32885, CFM + VAN
# [11] = Test 8, CD strain NR32885, CFM + MET
# [12] = Test 10, CD strain NR32885, CFM + MET
# [13] = Test 13, CD strain BAA1805 (BI/NAP1/027), CFM + VAN
# [14] = Test 14, CD strain BAA1805 (BI/NAP1/027), CFM + MET
# [15] = Test 15, CD strain BAA1805 (BI/NAP1/027), CFM + MET
smiles,measurement,setting,value
"CC(C)N=c1cc2n(-c3ccc(Cl)cc3)c3ccccc3nc-2cc1Nc1ccc(Cl)cc1 [CFM, 3-(p-chloroanilino)-10-(p-chlorophenyl)-2,10-dihydro-2-iso-propyliminophenazine]",MIC,Fusobacterium; F. nucleatum HM-75,> 32 µg/mL
same,MIC,Fusobacterium; F. nucleatum HM-260,> 32 µg/mL
same,MIC,Fusobacterium; F. nucleatum HM-992,> 32 µg/mL
same,MIC,Fusobacterium; F. nucleatum HM-993,2 µg/mL
same,MIC,Fusobacterium; F. nucleatum HM-994,32 µg/mL
same,MIC,Fusobacterium; F. nucleatum HM-995,> 32 µg/mL
same,MIC,Fusobacterium; F. nucleatum HM-996,32 µg/mL
same,MIC,Fusobacterium; F. nucleatum HM-997,> 32 µg/mL
same,MIC,"Fusobacterium; Fusobacterium, Fusobacterium sp. HM 42",> 32 µg/mL
same,MIC,"Fusobacterium; Fusobacterium, Fusobacterium sp. HM 57",> 32 µg/mL
same,MIC,"Fusobacterium; Fusobacterium, Fusobacterium sp. HM-556",16 µg/mL
same,MIC,"Fusobacterium; Fusobacterium, Fusobacterium sp. HM-758",> 32 µg/mL
same,MIC,"Fusobacterium; Fusobacterium, Fusobacterium sp. HM-871",32 µg/mL
same,MIC,"Fusobacterium; Fusobacterium, Fusobacterium sp. HM-874",> 32 µg/mL
same,MIC,"Fusobacterium; Fusobacterium, Fusobacterium sp. HM-875",32 µg/mL
same,MIC,"Lactobacillus strains; Lactobacillus, pH 6, Lactobacillus jhonsonii HM-643",> 32 µg/mL
same,MIC,"Lactobacillus strains; Lactobacillus, pH 6, Lactobacillus sp. HM-228",1 µg/mL
same,MIC,"Lactobacillus strains; Lactobacillus, pH 6, Lactobacillus sp. HM-478",> 32 µg/mL
same,MIC,"Lactobacillus strains; pH 6, Lactobacillus crispatus HM-637",4 µg/mL
same,MIC,"Lactobacillus strains; pH 6, Lactobacillus gasseri HM-104",> 32 µg/mL
same,MIC,"Lactobacillus strains; pH 6, Lactobacillus iners HM-126",2 µg/mL
same,MIC,"Lactobacillus strains; pH 6, Lactobacillus jensenii HM-105",> 32 µg/mL
same,MIC,"Lactobacillus strains; pH 6, Lactobacillus reuteri HM-102",> 32 µg/mL
same,MIC,"Lactobacillus strains; pH 6, Lactobacillus rhamnosus HM-106",> 32 µg/mL
same,MIC,"Lactobacillus strains; pH 6, Lactobacillus vaginalis HM-405",2 µg/mL
same,MIC,"CD strains; BAA1805, Test 13, CD strain BAA1805 (BI/NAP1/027), CFM + VAN",0.25 µg/mL
same,MIC,"CD strains; BAA1805, Test 14, CD strain BAA1805 (BI/NAP1/027), CFM + MET",0.25 µg/mL
same,MIC,"CD strains; BAA1805, Test 15, CD strain BAA1805 (BI/NAP1/027), CFM + MET",0.25 µg/mL
same,MIC,"CD strains; BAA1805, Test 16, CD strain BAA1805 (BI/NAP1/027), CFM + VAN",0.25 µg/mL
same,MIC,"CD strains; BAA1805, Test 17, CD strain BAA1805 (BI/NAP1/027), CFM + MET",0.25 µg/mL
same,MIC,CD strains; [1],0.25 µg/mL
same,MIC,CD strains; [2],0.25 µg/mL
same,MIC,CD strains; [3],0.25 µg/mL
same,MIC,CD strains; [4],0.25 µg/mL
same,MIC,"CD strains; Test 18, CD strain NR32888, CFM + VAN",0.25 µg/mL
same,MIC,"CD strains; Test 19, CD strain NR32888, CFM + MET",0.25 µg/mL
same,MIC,"CD strains; Test 20, CD strain NR32888, CFM + VAN",0.25 µg/mL
same,MIC,"CD strains; Test 21, CD strain NR32888, CFM + MET",0.25 µg/mL
same,MIC,CD strains,0.125 µg/mL
same,FIC,CD strains; [1],0.124
same,MIC combination,CD strains; [1],0.031 µg/mL
same,ΣFIC,"CD strains; Test 1, CD strain VPI 10463, sum for combination CFM + VAN",0.374
same,FIC,CD strains; [5],0.0312
same,MIC combination,CD strains; [5],0.0039 µg/mL
same,ΣFIC,"CD strains; Test 2, CD strain VPI 10463, sum for combination CFM + VAN",0.281
same,FIC,CD strains; [6],0.5
same,MIC alone,CD strains; [6],0.125 µg/mL
same,MIC combination,CD strains; [6],0.062 µg/mL
same,ΣFIC,"CD strains; Test 3, CD strain VPI 10463, sum for combination CFM + MET",1
same,FIC,CD strains; [7],0.5
same,MIC alone,CD strains; [7],0.125 µg/mL
same,MIC combination,CD strains; [7],0.062 µg/mL
same,ΣFIC,"CD strains; Test 4, CD strain VPI 10463, sum for combination CFM + MET",1
same,FIC,CD strains; [8],1
same,MIC alone,CD strains; [8],0.125 µg/mL
same,MIC combination,CD strains; [8],0.125 µg/mL
same,ΣFIC,"CD strains; Test 5, CD strain NR32889, sum for combination CFM + VAN",2
same,FIC,CD strains; [9],0.25
same,MIC alone,CD strains; [9],0.125 µg/mL
same,MIC combination,CD strains; [9],0.031 µg/mL
same,ΣFIC,"CD strains; Test 6, CD strain NR32890, sum for combination CFM + VAN",0.75
same,FIC,CD strains; [10],0.5
same,MIC alone,CD strains; [10],0.125 µg/mL
same,MIC combination,CD strains; [10],0.062 µg/mL
same,ΣFIC,"CD strains; Test 7, CD strain NR32885, sum for combination CFM + VAN",1
same,FIC,CD strains; [11],0.25
same,MIC alone,CD strains; [11],0.125 µg/mL
same,MIC combination,CD strains; [11],0.031 µg/mL
same,ΣFIC,"CD strains; Test 8, CD strain NR32885, sum for combination CFM + MET",0.375
same,FIC,CD strains; [2],0.25
same,MIC combination,CD strains; [2],0.062 µg/mL
same,ΣFIC,"CD strains; Test 9, CD strain NR32885, sum for combination CFM + VAN",0.5
same,FIC,CD strains; [12],0.031
same,MIC alone,CD strains; [12],0.125 µg/mL
same,MIC combination,CD strains; [12],0.0039 µg/mL
same,ΣFIC,"CD strains; Test 10, CD strain NR32885, sum for combination CFM + MET",0.281
same,FIC,CD strains; [3],0.25
same,MIC combination,CD strains; [3],0.062 µg/mL
same,ΣFIC,"CD strains; Test 11, CD strain NR32885, sum for combination CFM + VAN",0.5
same,FIC,CD strains; [4],0.031
same,MIC combination,CD strains; [4],0.0078 µg/mL
same,ΣFIC,"CD strains; Test 12, CD strain NR32885, sum for combination CFM + MET",0.281
same,FIC,CD strains; [13],0.25
same,MIC combination,CD strains; [13],0.062 µg/mL
same,ΣFIC,"CD strains; Test 13, CD strain BAA1805 (BI/NAP1/027), sum for combination CFM + VAN",0.312
same,FIC,CD strains; [14],0.015
same,MIC combination,CD strains; [14],0.0039 µg/mL
same,ΣFIC,"CD strains; Test 14, CD strain BAA1805 (BI/NAP1/027), sum for combination CFM + MET",0.031
same,FIC,CD strains; [15],0.06
same,MIC combination,CD strains; [15],0.015 µg/mL
same,ΣFIC,"CD strains; Test 15, CD strain BAA1805 (BI/NAP1/027), sum for combination CFM + MET",0.185
same,FIC,"CD strains; Test 16, CD strain BAA1805 (BI/NAP1/027), CFM + VAN",0.25
